From patent US10683310B2, “Compound for specifically binding to amyloid β-protein” (NEUBORON MEDTECH LTD., priority 2015, dated 2020)

What was measured:
[1] = stability in vitro of 11C-labeled compound determined by HPLC; format: physicochemical
Procedure: The stability of IIC-labeled 6-borono-2-(4-methylaminophenyl)benzothiazole in vitro was determined by HPLC, at selected time of 30 min and 60 min. […] Therefore, the radioactive chemical purity of the IIC-labeled radioactive compound met the experimental requirements.

[2] = tested on: amyloid β-protein deposition plaques; assay: Micro-PET scan of brain uptake in SAMP8 model mice and control mice; format: in vivo; details: for Cerebral cortex uptake of radiopharmaceuticals, Model mice / hippocampus uptake of radiopharmaceuticals, Model mice: SAMP8 model mice; for Cerebral cortex uptake of radiopharmaceuticals, Control mice / hippocampus uptake of radiopharmaceuticals, Control mice: normal control mice
Procedure: SAMP8 (senescence accelerated mouse prone 8) mice are the most common animal model of AD (Alzheimer's disease), in its brain there are a large number of amyloid deposition plaque. In this example, SAMP8 mice were used as model mice, and the normal mice were used as the control mice. Both the model mice and the control mice were 10 months old. The two mice were injected with 6-borono-2-(4-methylaminophenyl)benzothiazole containing labeling, and the Micro-PET scan is used to study whether 6-borono-2-(4-methylaminophenyl)benzothiazole and amyloid β-protein have specific binding properties. Model mice and control mice weighing 31.5±0.3 g were selected, 31.0±0.6 μCi of ^11C labelled 6-borono-2-(4-methylaminophenyl)benzothiazole were injected thereto, and Micro-PET of Model INVEON from Siemens were used for scan, where the scanning window was 350-650 KeV.
It is well known to those skilled in the art that the major cause of Alzheimer's disease is that the amyloid β-protein deposition plaques accumulate in the cerebral cortex and hippocampus of the brain. In this example, Micro-PET scanned and compared the brains of the model and control mice using PMOD software. And the absorption of radioactive 6-borono-2-(4-methylaminophenyl)benzothiazole in the cerebral cortex and hippocampus of SAMP8 model mice and control mice was determined, to further illustrate that the compound is capable of specifically binding to amyloid β-protein deposition plaques.

Q: Which “radioactive chemical purity (stability in vitro)” value ([1]; 30 min) does the source give for CNc1ccc(-c2nc3ccc(B(O)O)cc3s2)cc1 [6-borono-2-(4-methylaminophenyl)benzothiazole] here?
A: The value was 100%.

Q: And the “radioactive chemical purity (stability in vitro)” value ([1]; 60 min)?
A: The value was 100%.

Q: And the “Cerebral cortex uptake Ratio (model mice/control mice)” value ([2]; 5 min after injection)?
A: Its value is 1.9.

Q: And the “hippocampus uptake Ratio (model mice/control mice)” value ([2]; 5 min after injection)?
A: Its value is 1.9.

Q: And the “Cerebral cortex uptake Ratio (model mice/control mice)” value ([2]; 15 min after injection)?
A: Its value is 1.9.

Q: And the “hippocampus uptake Ratio (model mice/control mice)” value ([2]; 15 min after injection)?
A: Its value is 2.3.

Q: And the “Cerebral cortex uptake Ratio (model mice/control mice)” value ([2]; 25 min after injection)?
A: Its value is 2.4.

Q: And the “hippocampus uptake Ratio (model mice/control mice)” value ([2]; 25 min after injection)?
A: Its value is 3.2.

Q: What about the “Cerebral cortex uptake Ratio (model mice/control mice)” value ([2]; 35 min after injection) of the same compound?
A: The value was 2.7.

Q: And the “hippocampus uptake Ratio (model mice/control mice)” value ([2]; 35 min after injection)?
A: The value was 3.2.

Q: What about the “Cerebral cortex uptake of radiopharmaceuticals, Model mice” value ([2]; 5 min after injection) of the same compound?
A: Its value is 3.03 % ID/g.

Q: And the “hippocampus uptake of radiopharmaceuticals, Model mice” value ([2]; 5 min after injection)?
A: Its value is 3.44 % ID/g.

Q: What about the “Cerebral cortex uptake of radiopharmaceuticals, Model mice” value ([2]; 15 min after injection) of the same compound?
A: Its value is 2.88 % ID/g.

Q: What about the “hippocampus uptake of radiopharmaceuticals, Model mice” value ([2]; 15 min after injection) of the same compound?
A: Its value is 3.50 % ID/g.

Q: And the “Cerebral cortex uptake of radiopharmaceuticals, Model mice” value ([2]; 25 min after injection)?
A: The value was 2.79 % ID/g.

Q: What about the “hippocampus uptake of radiopharmaceuticals, Model mice” value ([2]; 25 min after injection) of the same compound?
A: The value was 3.45 % ID/g.

Q: What about the “Cerebral cortex uptake of radiopharmaceuticals, Model mice” value ([2]; 35 min after injection) of the same compound?
A: Its value is 2.68 % ID/g.

Q: And the “hippocampus uptake of radiopharmaceuticals, Model mice” value ([2]; 35 min after injection)?
A: The value was 3.27 % ID/g.

Q: And the “brain radiopharmaceutical absorption (PET image)” value ([2]; SAMP8 model mouse versus control mice, 30 min after injection, FIGS. 5A and 5B)?
A: The value was “accumulated a large amount of radiopharmaceuticals relative to the brain of the control mice”.

Q: What about the “Cerebral cortex uptake of radiopharmaceuticals, Control mice” value ([2]; 5 min after injection) of the same compound?
A: The value was 1.61 % ID/g.

Q: And the “hippocampus uptake of radiopharmaceuticals, Control mice” value ([2]; 5 min after injection)?
A: The value was 1.80 % ID/g.

Q: What about the “Cerebral cortex uptake of radiopharmaceuticals, Control mice” value ([2]; 15 min after injection) of the same compound?
A: The value was 1.48 % ID/g.

Q: What about the “hippocampus uptake of radiopharmaceuticals, Control mice” value ([2]; 15 min after injection) of the same compound?
A: The value was 1.49 % ID/g.

Q: What about the “Cerebral cortex uptake of radiopharmaceuticals, Control mice” value ([2]; 25 min after injection) of the same compound?
A: The value was 1.17 % ID/g.

Q: What about the “hippocampus uptake of radiopharmaceuticals, Control mice” value ([2]; 25 min after injection) of the same compound?
A: Its value is 1.09 % ID/g.

Q: What about the “Cerebral cortex uptake of radiopharmaceuticals, Control mice” value ([2]; 35 min after injection) of the same compound?
A: Its value is 0.99 % ID/g.

Q: What about the “hippocampus uptake of radiopharmaceuticals, Control mice” value ([2]; 35 min after injection) of the same compound?
A: The value was 1.01 % ID/g.
